For this experiment, the system named is lipoidalamine-induced arthritis. Description: Lipoidalamine-induced arthritis model. It counts as in vivo. The note with it: rat, positive control, 0.1 mg/kg orally. The source says: The lipoidalamine-induced arthritis test is a model of systemic inflammation and arthritis induced by the adjuvant substance N, N-dioctadecyl-N′,N′-bis(2-hydroxyethyl)propanediamine (LA) suspended in mineral oil. The disease that results is very similar to that occurring in Freund's complete adjuvant (FCA) treated rats according to Chang [Chang, Y., Pearson, C. M., and Abe, C., "Adjuvant polyarthritis IV. Induction by a synthetic adjuvant: immunologic, histopathologic, and other studies," Arth. Rheum.23: 62-71, (1980)]. Inflammation occurs in many tissues but is most striking in the spleen and joints. Compounds are tested for their ability to modulate splenic and joint inflammation in established disease (treatment starts on day 9).
The animals (Lewis/Sprague Dawley, males, 200-220 grams) are divided into groups of 5 and housed in hanging cages with food and water ad libitum. On day 0 they are injected with 7.5 mg of LA subcutaneously at the base of the tail. On day 9 the animals are weighed and compound administration is started. The compounds are suspended, using a tissue homogenizer, in a 1% CMC solution. The screening dose is 50 mg/kg orally. Compounds are administered once daily for 5 days (days 9-13) with no dosing on day 14. On day 15 the animals are weighed again and hind paw volume measured using a water manometer. The animals are then anesthetized and bled via cardiac puncture. After the animals are euthanized, the spleen is removed and weighed and the hind feet are removed just above the ankle joint and weighed. The individual blood samples are analyzed for fibrinogen. Means and standard errors for all of these parameters are then calculated, and percent differences from the diseased (LA) control are figured. Statistical significance is determined utilizing the Dunnet T calculation on the raw data. The positive control for the LA arthritis test is dexamethasone. Dexamethasone at a dose of 0.1 mg/kg orally will inhibit paw swelling by 80-90% and spleen weight by 90-100%. […]

Our source for the inhibit paw swelling, inhibit spleen weight and fibrinogen inhibited values is patent EP0526258A2, “A87689 Compounds, their production and use as phospholipase-A2 inhibitors” (ELI LILLY AND COMPANY, priority 1991, dated 1993).

In the case of `C[C@@H]1C[C@H]2[C@@H]3CCC4=CC(=O)C=C[C@]4(C)[C@@]3(F)[C@@H](O)C[C@]2(C)[C@@]1(O)C(=O)CO` [Dexamethasone, dexamethasone], the inhibit paw swelling is reported as 80-90% and the inhibit spleen weight is 90-100%. Where the note is “more variable”, the fibrinogen inhibited is recorded as 50-70%.
